Results reported in article PMC9415903, “Confocal Laser Scanning Microscopy and Model Membranes to Study Translocation Mechanisms of Membrane Active Peptides” (Pharmaceutics, 2022).
“Also recorded” adds a separate entry of the source.

Legend:
[1] = Peptide internalization and Alexa Fluor 488 efflux in neutral GUVs, confocal laser scanning microscopy; type: in vitro ADME; conditions: POPC/chol 80/20 mol% GUVs; 2 µM peptide; room temperature; up to 30 min; CLSM
Method: (§1) Giant unilamellar vesicles (GUVs) were obtained by the electroformation method as previously indicated. For that, 30 µL of different lipid mixtures (detailed in the Results section) were dissolved in chloroform and spread on indium tin oxide (ITO) glass slides (Sigma-Aldrich, Schnelldorf, Germany). After drying, the lipid film was gently hydrated with 200 mM sucrose dissolved in double distilled water, mixed with a fluorescent tracer, Alexa Fluor 488-maleimide (AF 488), at a concentration of 10 µM. The freshly prepared GUVs were then transferred in 180 mM glucose solution containing 20 mM Hepes, with a pH of 7.5. The samples were observed by confocal microscope at room temperature.
(§2) The experiments were performed using a confocal laser scanning microscope (Nikon Ti-E, Tokyo, Japan), equipped with LU4 Four-Laser Module with AOTF, a Plan Fluor 40x DIC M N2 objective and a DS-F1camera. An Alexa Fluor 488 tracer was excited using a line of 457–514 nm argon ion laser, TAMRA-TAT peptide with a diode laser emitting at 561 nm, and Dy647P1-peptides with a 642 nm diode laser. To observe the accumulation and internalization of peptides and the efflux of fluorescent tracers, the freshly prepared GUVs were transferred to a solution of glucose containing 2 µM fluorescently labeled peptide, to provide a homogeneous distribution of peptides to membranes. For each type of experiment, at least 10–15 GUVs with a diameter of 30–40 μm from two independent experiments were analyzed. Successive images were collected using the Nis-Elements Advanced Research imaging software (Nikon) and then quantification of fluorescence was performed using Fiji ImageJ [14]. The resulting data were then analyzed with Origin Pro 8.5 (OriginLab Corporation, Northampton, MA, USA).
(§3) For the present study, GUVs mimicking the mammalian plasma membrane were prepared as follows: POPC/cholesterol 80/20 mol%, POPC/POPE/cholesterol 50/30/20 mol% and POPC/POPS/cholesterol 50/30/20 mol%. The peptides fluorescently labeled (see Figure 1 for structure) were added at a concentration of 2 µM and the experiments were performed at room temperature.

[2] = TAMRA-TAT internalization and Alexa Fluor 488 efflux in GUVs with increasing cholesterol; type: in vitro ADME; conditions: 40 mol% chol (POPC/POPE/POPS/chol 30/20/10/40 mol%); CLSM
Method: as §1
The experiments were performed using a confocal laser scanning microscope (Nikon Ti-E, Tokyo, Japan), equipped with LU4 Four-Laser Module with AOTF, a Plan Fluor 40x DIC M N2 objective and a DS-F1camera. […] For each type of experiment, at least 10–15 GUVs with a diameter of 30–40 μm from two independent experiments were analyzed. Successive images were collected using the Nis-Elements Advanced Research imaging software (Nikon) and then quantification of fluorescence was performed using Fiji ImageJ [14]. The resulting data were then analyzed with Origin Pro 8.5 (OriginLab Corporation, Northampton, MA, USA). […]

[3] = Peptide internalization and Alexa Fluor 488 efflux in POPS GUVs, confocal laser scanning microscopy; type: in vitro ADME; conditions: room temperature; for Internalization of peptide in GUVs / Pore formation (efflux of AF 488, lytic effect): POPC/POPS/chol 50/30/20 mol% GUVs, 2 µM peptide, 30 min, CLSM; for Kint, peptide internalization rate constant: GUVs POPC/POPS/chol 50/30/20 mol%, 2 µM fluorescently labeled peptide, 180 mM glucose, 20 mM Hepes pH 7.5, CLSM fluorescence inside GUVs, fit F(t)=1−exp(−kint×t), data from three experiments averaged
Method: as §1, §2, §3
(§4) For kinetic traces, the time course of fluorescence intensity corresponding to peptides and Alexa Fluor 488 inside GUVs was measured. The data from three experiments were averaged and then fitted with a single rising exponential function to determine the values of internalization rates:F(t) = 1 − exp (−kint × t) (1) where t is time and kint is the peptide internalization rate constant.
(§5) The intensity corresponding to release of tracer Alexa Fluor 488 from GUVs in the presence of peptides was also measured to determine the efflux rates, using a single exponential decay function:F(t) = exp (−keff × t) (2) where t is time and keff is the peptide efflux rate constant.

[4] = Peptide internalization and Alexa Fluor 488 efflux in POPE GUVs, confocal laser scanning microscopy; type: in vitro ADME; conditions: room temperature; for Kint, peptide internalization rate constant: GUVs POPC/POPE/chol 50/30/20 mol%, 2 µM fluorescently labeled peptide, 180 mM glucose, 20 mM Hepes pH 7.5, CLSM fluorescence inside GUVs, fit F(t)=1−exp(−kint×t), data from three experiments averaged
Method: as §1, §2, §3, §4, §5

[5] = DOPS and/or DOPE containing GUVs; cited from earlier work
Text: In GUVs that contain 30 mol% PE, all peptides internalize, but only TAT and NKCS are able to form transmembrane pores through which the fluorescent dyes Alexa Fluor 488 can pass.

[6] = POPC/POPE/chol 50/30/20 mol% GUVs, 2 µM peptide, 30 min, CLSM

| Compound | Internalization of peptide in GUVs [1] | Internalization of the peptide [2] | Internalization of peptide in GUVs [3] | Efflux of Alexa Fluor 488 from GUVs [1] | Kint, peptide internalization rate constant [3] | Pore formation (efflux of AF 488, lytic effect) [3] | Kint, peptide internalization rate constant [4] | Efflux of AF 488 (lytic effect, pore formation) [4, 6] | Internalization of peptide in GUVs [4, 6] | Pore formation [5] |
| --- | --- | --- | --- | --- | --- | --- | --- | --- | --- | --- |
| CN(C)c1ccc2c(c1)Oc1cc(N(C)C)ccc1C21OC(=O)c2cc(C(=O)N[C@@H](Cc3ccc(O)cc3)C(=O)NCC(=O)N[C@@H](CCCNC(=N)N)C(=O)N[C@@H](CCCCN)C(=O)N[C@@H](CCCCN)C(=O)N[C@@H](CCCNC(=N)N)C(=O)N[C@@H](CCCNC(=N)N)C(=O)N[C@@H](CCC(N)=O)C(=O)N[C@@H](CCCNC(=N)N)C(=O)N[C@@H](CCCNC(=N)N)C(=O)N[C@@H](CCCNC(=N)N)C(=O)O)ccc21 [TAT, reference compound] | Neither peptide internalization nor AF 488 efflux can be observed | neither the internalization of the peptide nor the efflux of the fluorescent tracer could be registered | internalized |  |  |  |  |  |  |  |
| Dy647P1-CGNKRTR [tLyP-1, Dy647P1-labeled tumor homing peptide, truncated linear form of cyclic peptide LyP-1] |  |  |  | Neither peptide internalization nor AF 488 efflux can be observed | (0.75 ± 0.27) × 10^−3 s^−1 | just translocate without generating pores | (0.78 ± 0.03) × 10^−3 s^−1 | without the release of AF 488 |  |  |
| Dy647P1-LRRISKDILTGKK [NKCS-[15-27]] | Neither peptide internalization nor AF 488 efflux can be observed |  | internalized | Neither peptide internalization nor AF 488 efflux can be observed | (0.50 ± 0.23) × 10^−3 s^−1 | no lytic effect; also recorded: just translocate without generating pores | (0.20 ± 0.04) × 10^−3 s^−1 | without the release of AF 488 | internalized |  |
| nona-arginine [R9] |  |  |  |  |  |  |  |  |  | able to form pores |
